Assay results reported in patent publication US20120010260A1, “METHOD FOR TREATING NERVOUS SYSTEM DISORDERS AND CONDITIONS” (priority 2004, published 2012).
Several values for one entry are separate records, joined by “and”; a condition that tells them apart may be missing. Identical values can stand only once.

How the values were obtained:
[1] = tested on: Male Sprague-Dawley rats with L5/L6 spinal nerve ligation; test: Spinal nerve ligation (SNL) model of neuropathic pain, tactile hypersensitivity (von Frey); assay type: in vivo; settings: rat, 30 mg/kg IP, FIG. 7
Excerpt: Subjects. Male Sprague-Dawley rats (Indianapolis, Ind.) weighing 150 to 200 g at time of arrival, were individually housed in wire cages in a climate-controlled room. A 12-hour light/dark cycle (lights on at 0630) was in effect, and food and water were available ad libitum.
Surgery—Spinal Nerve Ligation. Rats were anesthetized with 3.5% halothane in O2 at 1 L/min and maintained with 1.5% halothane in O2 during surgery. Ligation of the L5 and L6 nerves was produced by an incision through the left paraspinal muscles. The left L5 and L6 spinal nerves were isolated adjacent to the vertebral column and ligated tightly with 6-0 silk suture just distal to the dorsal root ganglion. […]
Assessment of tactile hypersensitivity. […] Baseline tactile sensitivity was assessed using a series of calibrated von Frey monofilaments (Stoelting; Wood Dale, Ill.) 0 to 3 days before surgery. […] The ability of a single dose of test compound to reverse established hypersensitivity was assessed using a time course procedure. […]
Results are presented as the 50% threshold values (50% threshold in g force) estimated by the Dixon non-parametric test. […] Significant main effects were analyzed further by subsequent least significant difference analysis. […]
Reversal of tactile hypersensitivity was defined as a return to baseline of the tactile sensitivity and was calculated according to the following equation: […]

[2] = tested on: ovariectomized (OVX) rats, tail skin temperature (TST); test: Telemetry rat model of ovariectomy-induced thermoregulatory dysfunction (tail skin temperature); assay type: in vivo; settings: 30 mg/kg, sc; p<0.05 compared to vehicle control
Excerpt: This model has been modified from a previously reported protocol describing estrogen regulation of diurnal tail skin temperature (TST) patterns (Berendsen, et al., European Journal of Pharmacology, 2001, 419(1): 47-54). […] A temperature and physical activity transmitter (PhysioTel TA10TA-F40, Data Sciences International) was implanted subcutaneously in the dorsal scapular region and the tip of the temperature probe was tunneled subcutaneously 2.5 cm beyond the base of the tail. After a 7-day recovery period, TST readings were continuously recorded for the remainder of the study. Tail skin temperature readings were collected from each animal every 5 minutes with values obtained over a 10 second sampling period. The day before test day, an average baseline TST value was calculated for each animal by averaging temperature readings recorded during the 12 hour active (dark) phase. […]
Statistical analysis: Evaluation of a compound's ability to restore normal lowering of TST in the telemetry model was analyzed using hourly TST values calculated for each animal by averaging the 12 temperature readings obtained every 5 minutes over that recording time. […]
The effect of test compound is measured by evaluating the following parameters in this model: onset of action, duration of effect on TST, maximal change in TST and mean change in TST over the duration of the compound effect.

[3] = target: T1, human dopamine transporter (hDAT) (Homo sapiens, UniProt Q01959); test: Dopamine transporter (hDAT) membrane binding assay, 3H-WIN 35,428
T1 construct: purchased Perkin Elmer RBHDATM
T1 sequence (Q01959 whole entry): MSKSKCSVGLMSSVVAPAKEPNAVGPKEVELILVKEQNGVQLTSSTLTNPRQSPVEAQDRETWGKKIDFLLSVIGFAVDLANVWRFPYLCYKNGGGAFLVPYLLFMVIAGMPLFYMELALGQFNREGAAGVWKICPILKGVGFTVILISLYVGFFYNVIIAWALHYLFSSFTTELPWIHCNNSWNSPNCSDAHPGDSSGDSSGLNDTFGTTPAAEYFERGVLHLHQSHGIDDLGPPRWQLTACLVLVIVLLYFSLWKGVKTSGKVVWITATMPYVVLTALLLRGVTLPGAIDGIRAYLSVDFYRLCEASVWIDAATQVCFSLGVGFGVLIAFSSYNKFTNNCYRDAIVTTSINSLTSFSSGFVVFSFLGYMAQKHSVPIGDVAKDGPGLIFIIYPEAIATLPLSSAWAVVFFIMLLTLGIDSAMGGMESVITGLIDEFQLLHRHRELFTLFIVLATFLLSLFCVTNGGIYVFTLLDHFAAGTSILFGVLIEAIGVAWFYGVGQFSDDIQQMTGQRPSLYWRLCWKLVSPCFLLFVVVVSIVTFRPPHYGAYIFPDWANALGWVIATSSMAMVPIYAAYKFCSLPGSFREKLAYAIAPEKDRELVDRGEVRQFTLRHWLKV

[4] = target: T2, human serotonin transporter (hSERT) (Homo sapiens, UniProt P31645); test: Serotonin (5-HT) uptake assay (hSERT function uptake) in JAR cells; assay type: cell-based; settings: [3H]5-HT uptake
T2 construct: cells were stimulated with staurosporine (40 nM) to increase the expression of the 5-HT transporter; host or cells: JAR (human placental choriocarcinoma)
T2 sequence (P31645 whole entry): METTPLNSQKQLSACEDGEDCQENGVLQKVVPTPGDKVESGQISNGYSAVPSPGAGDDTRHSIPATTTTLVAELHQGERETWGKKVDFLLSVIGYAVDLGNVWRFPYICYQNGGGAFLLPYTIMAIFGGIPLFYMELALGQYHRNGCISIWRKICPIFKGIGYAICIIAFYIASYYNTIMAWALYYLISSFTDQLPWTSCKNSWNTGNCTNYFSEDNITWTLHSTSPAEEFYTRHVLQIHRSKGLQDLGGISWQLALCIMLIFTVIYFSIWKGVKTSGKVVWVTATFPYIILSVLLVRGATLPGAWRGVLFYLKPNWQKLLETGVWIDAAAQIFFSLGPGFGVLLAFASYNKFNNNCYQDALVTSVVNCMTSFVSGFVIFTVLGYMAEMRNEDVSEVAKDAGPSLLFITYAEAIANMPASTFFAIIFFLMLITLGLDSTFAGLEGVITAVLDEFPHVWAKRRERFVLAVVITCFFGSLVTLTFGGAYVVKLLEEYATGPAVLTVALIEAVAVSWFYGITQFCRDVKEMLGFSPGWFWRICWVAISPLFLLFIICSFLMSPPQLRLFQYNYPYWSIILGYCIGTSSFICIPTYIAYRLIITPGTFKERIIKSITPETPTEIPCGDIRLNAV
Description: The methods for 5-HT functional reuptake using the JAR cell line were modified using a previous literature report. […] On day 2, cells were stimulated with staurosporine (40 nM) to increase the expression of the 5-HT transporter. On day 3, cells were removed from the cell incubator two hours prior to assay and maintained at room temperature to equilibrate the growth medium to ambient oxygen concentration. […] Twenty-five microliters of assay buffer (maximum 5-HT uptake) or test compound were added directly to triplicate wells containing cells in 200 μl of assay buffer. The cells were incubated with the compound for 10 minutes (37° C.). […] The cells were incubated with the reaction mixture for 5 minutes at 37° C. The 5-HT uptake reaction was terminated by decanting the assay buffer.

[5] = target: human norepinephrine transporter (hNET) (Homo sapiens, UniProt P23975); settings: read-out: hNET function uptake (EC50 in nm); MDCK-Net6 cells, [3H]NE uptake
Sequence of human norepinephrine transporter (hNET) (P23975 whole entry): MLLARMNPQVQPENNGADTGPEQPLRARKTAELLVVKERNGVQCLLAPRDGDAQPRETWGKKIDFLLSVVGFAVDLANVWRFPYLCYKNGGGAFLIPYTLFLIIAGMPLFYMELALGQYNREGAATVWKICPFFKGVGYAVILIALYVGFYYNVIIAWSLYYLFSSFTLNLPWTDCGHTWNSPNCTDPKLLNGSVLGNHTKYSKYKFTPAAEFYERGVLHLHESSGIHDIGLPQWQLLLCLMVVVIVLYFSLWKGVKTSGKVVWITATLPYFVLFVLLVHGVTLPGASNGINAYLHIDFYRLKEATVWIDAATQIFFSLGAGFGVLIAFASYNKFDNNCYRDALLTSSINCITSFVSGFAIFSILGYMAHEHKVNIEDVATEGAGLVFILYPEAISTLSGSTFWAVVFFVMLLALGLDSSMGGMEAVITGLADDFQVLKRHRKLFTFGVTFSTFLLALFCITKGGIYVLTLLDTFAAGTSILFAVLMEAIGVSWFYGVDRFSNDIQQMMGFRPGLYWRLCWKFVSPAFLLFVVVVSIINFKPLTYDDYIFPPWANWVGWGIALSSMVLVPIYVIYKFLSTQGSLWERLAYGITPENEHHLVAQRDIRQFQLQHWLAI

Clc1ccc(C23CNCC2C3)cc1Cl (racemic) [Racemic 1-(3,4-dichlorophenyl)-3-azabicyclo[3.1.0]hexane, 1-(3,4-dichlorophenyl)-3-azabicyclo[3.1.0]hexane]
Reversal of tactile allodynia in the SNL neuropathic pain model [1]: significantly reverses tactile allodynia

Cc1ccc(C23CNCC2C3)cc1 (racemic) [Racemic 1-(4-methylphenyl)-3-azabicyclo[3.1.0]hexane, 1-(4-methylphenyl)-3-azabicyclo[3.1.0]hexane]
Restoration of normal TST in OVX-induced thermoregulatory dysfunction telemetry model [2]: restores normal TST | hDAT binding (% I at 1 μM) ([3]; 1 μM): 26.5 % I | hDAT binding (% I at 10 μM) [3]: 45 % I and 52.1 % I

Cc1ccc(C23CNCC2C3)cc1 (single isomer, unassigned; (+)) [(+)-1-(4-methylphenyl)-3-azabicyclo[3.1.0]hexane]
EC50 [4]: 7.35 µM | Restoration of normal TST in OVX-induced thermoregulatory dysfunction telemetry model [2]: restores normal TST | EC50 [5]: 0.148 µM | hDAT binding (% I at 10 μM) [3]: 51 % I
